# Measurements published in ChEMBL document CHEMBL4414648, “Novel Benzohydroxamate-Based Potent and Selective Histone Deacetylase 6 (HDAC6) Inhibitors Bearing a Pentaheterocyclic Scaffold: Design, Synthesis, and Biological Evaluation” (J Med Chem, 2019).
# pIC50: −log10 of the molar value. Activity calls are given as the source filed them. The rule behind the calls is not given here.
# Legend:
# PBMC = test: Cytotoxicity against human PBMC cells after 72 hrs by CellTiter 96 aqueous one solution assay; assay type: cell-based
# [1] = biological target: T1, Protein deacetylase HDAC6 (Mus musculus) (UniProt Q9Z2V5); test: Inhibition of HDAC6 in C57BL/6 mouse regulatory T cells assessed as increase in Treg-mediated suppression of anti-CD3 induced CD4+ cell division at 500 nM after 72 hrs in presence mitomycin-treated APC by CFSE dye based flow cytometric assay relative to control
# T1 sequence (whole entry): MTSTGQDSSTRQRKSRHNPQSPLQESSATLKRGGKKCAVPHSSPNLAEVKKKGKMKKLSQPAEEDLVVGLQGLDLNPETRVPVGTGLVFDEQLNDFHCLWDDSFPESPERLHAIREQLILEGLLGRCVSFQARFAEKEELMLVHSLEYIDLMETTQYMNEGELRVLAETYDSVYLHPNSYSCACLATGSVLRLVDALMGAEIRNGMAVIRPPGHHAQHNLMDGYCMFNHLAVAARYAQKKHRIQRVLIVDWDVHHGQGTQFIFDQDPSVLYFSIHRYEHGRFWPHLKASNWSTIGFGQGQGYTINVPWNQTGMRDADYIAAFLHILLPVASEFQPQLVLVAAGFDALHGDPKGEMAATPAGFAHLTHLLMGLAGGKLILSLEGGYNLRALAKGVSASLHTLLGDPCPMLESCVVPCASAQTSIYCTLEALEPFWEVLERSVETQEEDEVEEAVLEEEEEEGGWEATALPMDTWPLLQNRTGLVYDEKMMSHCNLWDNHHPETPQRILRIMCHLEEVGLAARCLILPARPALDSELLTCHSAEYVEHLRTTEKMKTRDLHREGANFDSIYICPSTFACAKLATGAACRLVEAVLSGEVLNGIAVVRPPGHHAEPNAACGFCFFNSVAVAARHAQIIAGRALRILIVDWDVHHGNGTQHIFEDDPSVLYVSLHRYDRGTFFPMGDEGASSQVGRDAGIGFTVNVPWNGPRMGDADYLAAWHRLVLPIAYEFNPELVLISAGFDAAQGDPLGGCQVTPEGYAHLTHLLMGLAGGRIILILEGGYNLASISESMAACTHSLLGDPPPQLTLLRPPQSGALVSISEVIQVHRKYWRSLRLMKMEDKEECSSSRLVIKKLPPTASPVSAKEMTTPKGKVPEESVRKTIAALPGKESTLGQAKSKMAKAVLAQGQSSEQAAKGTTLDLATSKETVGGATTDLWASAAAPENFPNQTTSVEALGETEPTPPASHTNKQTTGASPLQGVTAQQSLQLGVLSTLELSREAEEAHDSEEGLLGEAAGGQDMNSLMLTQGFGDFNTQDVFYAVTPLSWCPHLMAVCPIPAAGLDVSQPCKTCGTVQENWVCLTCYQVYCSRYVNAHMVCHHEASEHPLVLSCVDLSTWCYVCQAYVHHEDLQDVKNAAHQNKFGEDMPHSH
# [2] = Toxicity in C57BL/6 mouse assessed as effect on WBC level at 10 mg/kg, ip administered for 5 days/week for two cycles and measured 60 mins post last dose by beckman coulter counting method relative to control; assay type: organism-based; conditions: in vivo, 1 h
# [3] = Apparent volume of distribution at steady state in CD-1 mouse at […], iv measured within 6 hrs by LC-MS/MS analysis; assay type: ADME, organism-based; conditions: in vivo, read-out: Vdss(app)
# [4] = Toxicity in C57BL/6 mouse assessed as induction of diarrhea up to 50 mg/kg, ip administered for 5 days/week for two cycles and measured daily starting from day 1; assay type: organism-based; conditions: in vivo, 120 h
# [5] = Oral bioavailability in CD-1 mouse at 5.2 mg/kg measured within 6 hrs by LC-MS/MS analysis; assay type: ADME, organism-based; conditions: in vivo
# [6] = Stability in human plasma assessed as parent compound remaining at 100 uM after 4 hrs by LC-MS/MS analysis; assay type: ADME, cell-free; conditions: read-out: Stability
# [7] = Inhibition of C57BL/6 mouse effector T cells proliferation at 1 uM after 72 hrs in absence of regulatory T cells by CFSE dye based flow cytometric assay relative to control
# [8] = Toxicity in C57BL/6 mouse assessed as induction of kyphosis up to 50 mg/kg, ip administered for 5 days/week for two cycles and measured daily starting from day 1; assay type: organism-based; conditions: in vivo, 120 h
# [9] = Selectivity ratio of IC50 for C-terminal His-tagged human HDAC8 expressed in baculovirus infected sf9 insect cells to IC50 for human N-terminal GST-tagged HDAC6 expressed in baculovirus infected sf9 insect cells
# [10] = Toxicity in C57BL/6 mouse assessed as effect on platelet level at 50 mg/kg, ip administered for 5 days/week for two cycles and measured 60 mins post last dose by cell counter method relative to control; assay type: organism-based; conditions: in vivo, 1 h
# [11] = Inhibition of C57BL/6 mouse effector T cells proliferation at 500 nM after 72 hrs in absence of regulatory T cells by CFSE dye based flow cytometric assay relative to control
# [12] = Toxicity in C57BL/6 mouse assessed as effect on body temperature up to 50 mg/kg, ip administered for 5 days/week for two cycles and measured daily starting from day 1; assay type: organism-based; conditions: in vivo, 120 h
# Histone deacetylase = test: Inhibition of HDAC in human 697 cells assessed as increase in H3 acetylation at 1000 nM incubated for 16 hrs by ELISA; assay type: cell-based; conditions: human, 697, 16 h, 1 µM
# [13] = Toxicity in C57BL/6 mouse assessed as effect on WBC level at 30 mg/kg, ip administered for 5 days/week for two cycles and measured 60 mins post last dose by beckman coulter counting method relative to control; assay type: organism-based; conditions: in vivo, 1 h
# [14] = Toxicity in ip dosed C57BL/6 mouse administered for 5 days/week for two cycles; assay type: organism-based; conditions: in vivo
# [15] = Toxicity in C57BL/6 mouse assessed as effect on spasms up to 50 mg/kg, ip administered for 5 days/week for two cycles and measured daily starting from day 1; assay type: organism-based; conditions: in vivo, 120 h
# [16] = Toxicity in C57BL/6 mouse assessed as effect on body weight at 30 mg/kg, ip administered for 5 days/week for two cycles and measured every other day relative to control; assay type: organism-based; conditions: in vivo, 120 h
# [17] = Toxicity in C57BL/6 mouse assessed as effect on body weight at 10 mg/kg, ip administered for 5 days/week for two cycles and measured every other day relative to control; assay type: organism-based; conditions: in vivo, 120 h
# Mus musculus = test: In vivo inhibition of HDAC6 in C57BL/6 mouse assessed as increase in acetylated tubulin level in spleen cytosolic protein extract at 30 mg/kg, ip measured after 24 hrs by ELISA; assay type: functional, organism-based
# [18] = Toxicity in C57BL/6 mouse assessed as effect on grooming up to 50 mg/kg, ip administered for 5 days/week for two cycles; assay type: organism-based; conditions: in vivo, 120 h
# [19] = Selectivity ratio of IC50 for N-terminal His-tagged human HDAC11 expressed in baculovirus expression system to IC50 for human N-terminal GST-tagged HDAC6 expressed in baculovirus infected sf9 insect cells
# [20] = Toxicity in C57BL/6 mouse assessed as inactivity/hyperactivity up to 50 mg/kg, ip administered for 5 days/week for two cycles and measured daily starting from day 1; assay type: organism-based; conditions: in vivo, 120 h
smiles,measurement,setting,value
Cn1c(Sc2ccc(C(=O)NO)cc2)nnc1-c1cccs1,pIC50,PBMC,< 6.00
same,fold change (FC),[1],> 1.5
same,Activity,[2],1%
same,Vd at 6 h,[3],5.4 L/kg
same,Activity,[4],Non-Toxic
same,bioavailability,[5],26%
same,"remaining at 4 h, 100 µM",[6],100%
same,"inhibition at 72 h, 1 µM",[7],< 5%
same,Activity,[8],Non-Toxic
same,Ratio IC50,[9],62
same,Activity,[10],-8%
same,"inhibition at 72 h, 0.5 µM",[11],< 0.5%
same,Activity,[12],Non-Toxic
same,inhibition (INH),Histone deacetylase,Active
same,Activity,[13],-34%
same,MTD at 120 h,[14],< 30 mg/kg
same,Activity,[15],Non-Toxic
same,Activity,[16],3.9%
same,Activity,[17],2.8%
same,inhibition,Mus musculus,Active
same,Activity,[18],Non-Toxic
same,Ratio IC50,[19],119
same,Activity,[20],Non-Toxic
